This assay deals with proteasomal pathway. The assay can be described thus: lactacystin treatment of 293T cells transfected with SCA2 constructs, western blot. The format is cell-based. On the procedure: To further confirm that the 42 kD fragment was generated preferably by ataxin-2 with an expanded polyQ tract, and to investigate whether mutant ataxin-2 was ubiquitinated, 293T cells were transfected with pEGFP-SCA2(Q22) or pEGFP-SCA2(Q58), followed by treatment with lactacystin for 24 hours to inhibit the proteasomal pathway. Briefly, to generate GFP fusion with SCA2, a full-length SCA2 cDNA including nucleotides 145 to 4,481 (Pulst et al., Nature Genet., 14:269-276 (1996)) was assembled in the pBluescript vector with 22 or 58 CAG repeats. To generate ataxin-2 expression plasmids, the full-length SCA2 cDNA containing either the 22 or 58 CAG repeat was shuttled into the pEGFPC2 (Clontech; Palo Alto Calif.) or pcDNA vectors (Invitrogen; Carlsbad Calif.). These constructs were named pEGFP-SCA22, pEGFP-SCA58, pcDNA-SCA22 or pcDNA-SCA58.
Transient expression of pEGFP-SCA2 constructs was analyzed in 293T cells. To investigate ubiquitination of ataxin-2, 293T cells growing at 60% confluency in 100-mm Petri dishes were transfected with either pEGFP-SCA2 or pcDNA-SCA2 constructs (10 μg) containing either 22 or 58 CAG repeats. Transfected cells were grown overnight and then treated with culture medium with or without lactacystin (10 μM) for 24 h. Cells were incubated with triple detergent buffer (0.5% sodium dodecyl sulfate (SDS), 1% Triton-X 100, 0.5% deoxycholate, 100 mM Tris-HCl, pH 8.0, 150 mM NaCl, and Sigma mammalian protease inhibitors cocktail (Sigma; St. Louis Mo.)) for 1 h on ice with occasional vortexing. Protein extracts were centrifuged at maximum speed in an Eppendorf microfuge at 4° C. for 30 min, and pellets were resuspended in triple detergent buffer. Both protein extract and pellet suspension were stored at −70° C. For western-blot analysis, 100 μg total protein extract per lane was mixed with SDS-polyacrylamide gel electrophoresis (PAGE) sample buffer and incubated for 2 h at 37° C. before loading on to a 4-15% SDS-PAGE gradient gel. Western blots were detected with SCA2A, 1C2 and ubiquitin antibodies.
Western blots were performed on transfected 293 cell protein extracts and insoluble pellets using the GFP or ubiquitin antibody. Untreated cells served as controls. The GFP antibody detected the full-length GFP-ataxin-2 with Q22 and Q58 at 200 kD and an additional band at 70 kD in 293T cells transfected with pEGFP-SCA2(Q58). Neither the 70 kD nor the 200 kD proteins were detected in untransfected 293T protein extracts.
To investigate whether the GFP fusion caused any interference with ubiquitin conjugation, 293T cells were transfected with pcDNA-SCA2(Q22) or pcDNA-SCA2(58) and treated with lactacystin.
Background: Immunoblotting shows a protein as a band on a membrane.

Regarding `CC(=O)N[C@@H](CSC(=O)[C@]1([C@@H](O)C(C)C)NC(=O)[C@H](C)[C@@H]1O)C(=O)O` [lactacystin], where the note is “293T cells transfected with pEGFP-SCA2(Q22) or (Q58), lactacystin 10 μM for 24 h, versus untreated cells, GFP antibody”, the “levels of GFP-tagged ataxin-2” value is reported as “increased levels”. Further, under “293T cells transfected with pEGFP-SCA2(Q22) or (Q58), lactacystin 10 μM for 24 h, versus untreated cells, ubiquitin antibody”, the “levels of ubiquitin-conjugated protein complexes” value was “increased levels”. In addition, the “total amount of ataxin-2(Q58) (p180)” value (293T cells transfected with pcDNA-SCA2(58), lactacystin-treated, 1C2 or ubiquitin antibodies) is “increased”. Further, the “formation of large ataxin-2 aggregates” value (293T cells transfected with pcDNA-SCA2(Q22) or pcDNA-SCA2(58), lactacystin-treated, western blot) is listed as “no large ataxin-2 aggregates were found”.

(Values after patent US6515197B1, “Transgenic mouse expressing a polynucleotide encoding a human ataxin-2 polypeptide” (Cedars-Sinai Medical Center, priority 2000, dated 2003).)
